From US20250032450A1, “[…] INHALABLE FORMULATIONS” (Cybin UK Ltd., priority 2021, published 2025)
Converted amounts (≈) assume the structure as drawn. Where two headings read alike, the source gives them in different places.

Columns and labels:
[1] = in water; estimated; cited from earlier work
[2] = N,N-Dimethyltryptamine pH-solubility in 0.5M Britton Robinson buffer; format: physicochemical; conditions: aqueous buffer, thermodynamic from solid, read-out: solubility, Real data
Method: Prior to adding N,N-dimethyltryptamine, a quantity of NaOH was added to the BR buffer as required to ensure the required pH. The total volume of BR buffer plus required amount of NaOH was 5 ml for each pH tested (pH 4, 5, 6, 7, 8, 9 & 10).

[3] = HMDB; cited from earlier work

Compound | pKa of terminal phosphate oxygen atom (first value) [1] | pKa of terminal phosphate oxygen atom (second value) [1] | solubility ([2]; pH 4.05, 25° C.) | solubility ([2]; pH 4.98, 25° C.) | solubility ([2]; pH 6.05, 25° C.) | solubility ([2]; pH 7.08, 25° C.) | solubility ([2]; pH 8.07, 25° C.) | solubility ([2]; pH 8.91, 25° C.) | solubility ([2]; pH 10.01, 25° C.) | degradation in solution [3]
CN(C)CCc1c[nH]c2cccc(OP(=O)(O)O)c12 [psilocybin, [3-(2-Dimethylaminoethyl)-1H-indol-4-yl] dihydrogen phosphate] | 1.3 | 6.5 | – | – | – | – | – | – | – | –
CN(C)CCc1c[nH]c2ccccc12 [N,N-Dimethyltryptamine] | – | – | 105 mg/mL (≈ 556 mM) | 126 mg/mL (≈ 671 mM) | 92.6 mg/mL (≈ 492 mM) | 68.6 mg/mL (≈ 364 mM) | 88.4 mg/mL (≈ 470 mM) | 17.1 mg/mL (≈ 90.8 mM) | 1.14 mg/mL (≈ 6.06 mM) | degrades relatively quickly in solution
